Results published in publication PMC2492869 (BMC Microbiology, 2008).

Target: T1, Brucella suis urease (ure-1 operon) (Brucella suis, UniProt Q8G2P8)
T1 construct: gene ureC1
Assay: biochemical

T1 sequence (Q8G2P8 whole entry, looked up): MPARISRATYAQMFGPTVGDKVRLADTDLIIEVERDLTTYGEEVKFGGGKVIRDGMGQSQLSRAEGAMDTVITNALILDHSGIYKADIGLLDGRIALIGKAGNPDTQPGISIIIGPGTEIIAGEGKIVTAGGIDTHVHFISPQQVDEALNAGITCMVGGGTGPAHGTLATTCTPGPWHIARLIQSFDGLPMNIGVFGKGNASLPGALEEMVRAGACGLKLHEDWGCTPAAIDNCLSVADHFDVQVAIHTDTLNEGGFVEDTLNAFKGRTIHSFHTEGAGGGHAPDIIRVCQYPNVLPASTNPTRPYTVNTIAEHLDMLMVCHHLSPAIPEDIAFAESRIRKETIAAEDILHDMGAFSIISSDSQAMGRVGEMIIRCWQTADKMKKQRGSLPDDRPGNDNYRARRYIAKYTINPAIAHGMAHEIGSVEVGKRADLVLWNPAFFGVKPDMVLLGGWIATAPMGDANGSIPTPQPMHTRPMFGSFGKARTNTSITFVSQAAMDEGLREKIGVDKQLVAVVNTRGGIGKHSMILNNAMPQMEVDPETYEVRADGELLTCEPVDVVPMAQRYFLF

Compound | Ki
NC(N)=S [thiourea] | 26.1 ± 2.3 mM
CC(=O)NO [acetohydroxamic acid] | 0.77 ± 0.06 mM
NC(=O)NO [hydroxyurea] | 1.04 ± 0.31 mM
